≈ marks a conversion by molar mass, not a printed value. Calls of active or inactive are those of the source. The calls are words filed in the database; no cut-off is given here.
Key:
Escherichia coli [1] = assay: Antibacterial activity against Escherichia coli after 18 to 24 hrs by microbroth dilution method; assay type: functional; details: for MIC: Escherichia coli
Pseudomonas putida [2] = assay: Antibacterial activity against Pseudomonas putida after 18 to 24 hrs by microbroth dilution method; assay type: functional; details: for MIC: Pseudomonas putida
Klebsiella pneumoniae = assay: Antibacterial activity against Klebsiella pneumoniae after 18 to 24 hrs by microbroth dilution method; assay type: functional; details: for MIC: Klebsiella pneumoniae
Bacillus subtilis [3] = assay: Antibacterial activity against Bacillus subtilis after 18 to 24 hrs by microbroth dilution method; assay type: functional; details: for MIC: Bacillus subtilis
Staphylococcus aureus [4] = assay: Antibacterial activity against Staphylococcus aureus after 18 to 24 hrs by microbroth dilution method; assay type: functional; details: for MIC: Staphylococcus aureus
Escherichia coli [5] = assay: Bactericidal activity against Escherichia coli at 3 times MIC after 2 hrs by time-kill analysis; assay type: functional
Pseudomonas putida [6] = assay: Bactericidal activity against Pseudomonas putida at 3 times MIC after 2 hrs by time-kill analysis; assay type: functional
Bacillus subtilis [7] = assay: Bactericidal activity against Bacillus subtilis at 3 times MIC after 2 hrs by time-kill analysis; assay type: functional
Staphylococcus aureus [8] = assay: Bactericidal activity against Staphylococcus aureus at 3 times MIC after 2 hrs by time-kill analysis; assay type: functional
MDA-MB-231 = assay: Cytotoxicity against human MDA-MB-231 cells after 48 hrs by MTT assay; assay type: functional, cell-based; details: MDA-MB-231, 48 h
[9] = Cytotoxicity against human PC3 cells after 48 hrs by MTT assay; assay type: functional, cell-based; details: PC-3, 48 h
HeLa = assay: Cytotoxicity against human HeLa cells after 48 hrs by MTT assay; assay type: functional, cell-based
[10] = Cytotoxicity against human C4-2 cells after 48 hrs by MTT assay; assay type: functional, cell-based; details: LNCaP C4-2, 48 h
[11] = Cytotoxicity against human HEK293T cells after 48 hrs by MTT assay; assay type: cell-based; details: HEK-293T
[12] = Cytotoxicity against human BxPC3 cells after 48 hrs by MTT assay; assay type: functional, cell-based; details: BXPC-3, 48 h
[13] = Stability of compound at pH 4.5 up to 48 hrs by HPLC analysis; assay type: physicochemical; details: buffer, pH 4.5, 48 h
[14] = Stability of compound at pH 7.4 up to 48 hrs by HPLC analysis; assay type: physicochemical; details: buffer, pH 7.4, 48 h
[15] = Aqueous solubility of compound after 12 hrs by shake-flask method; assay type: physicochemical; details: water
Escherichia coli [16] = assay: Bactericidal activity against Escherichia coli assessed as maximum bactericidal reduction at 3 times MIC after 3 hrs by time-kill analysis; assay type: functional, organism-based
Pseudomonas putida [17] = assay: Bactericidal activity against Pseudomonas putida assessed as maximum bactericidal reduction at 3 times MIC after 3 hrs by time-kill analysis; assay type: functional, organism-based
PC-3 = assay: Induction of apoptosis in human PC3 cells assessed as increase in cleaved PARP1 level after 48 hrs by immunoblot analysis; assay type: functional, cell-based
Escherichia coli [18] = assay: Antimicrobial activity against Escherichia coli; assay type: functional
Bacillus subtilis [19] = assay: Antimicrobial activity against Bacillus subtilis; assay type: functional
Pseudomonas aeruginosa = assay: Antimicrobial activity against Pseudomonas aeruginosa; assay type: functional
P388 = assay: Cytotoxicity against mouse P388 cells; assay type: functional, cell-based
A549 = assay: Cytotoxicity against human A549 cells; assay type: functional, cell-based
Micrococcus luteus = assay: Antimicrobial activity against Sarcina lutea; assay type: functional
Corynebacterium xerosis = assay: Antimicrobial activity against Corynebacterium xerosis; assay type: functional
[20] = target: Cyclin-dependent kinase 4 (Homo sapiens, UniProt P11802); assay: Inhibition of CDK4 (unknown origin)
[21] = target: Receptor tyrosine-protein kinase erbB-2 (Homo sapiens, UniProt P04626); assay: Inhibition of c-erbB2 (unknown origin)
Chain of Receptor tyrosine-protein kinase erbB-2 (P04626 whole entry): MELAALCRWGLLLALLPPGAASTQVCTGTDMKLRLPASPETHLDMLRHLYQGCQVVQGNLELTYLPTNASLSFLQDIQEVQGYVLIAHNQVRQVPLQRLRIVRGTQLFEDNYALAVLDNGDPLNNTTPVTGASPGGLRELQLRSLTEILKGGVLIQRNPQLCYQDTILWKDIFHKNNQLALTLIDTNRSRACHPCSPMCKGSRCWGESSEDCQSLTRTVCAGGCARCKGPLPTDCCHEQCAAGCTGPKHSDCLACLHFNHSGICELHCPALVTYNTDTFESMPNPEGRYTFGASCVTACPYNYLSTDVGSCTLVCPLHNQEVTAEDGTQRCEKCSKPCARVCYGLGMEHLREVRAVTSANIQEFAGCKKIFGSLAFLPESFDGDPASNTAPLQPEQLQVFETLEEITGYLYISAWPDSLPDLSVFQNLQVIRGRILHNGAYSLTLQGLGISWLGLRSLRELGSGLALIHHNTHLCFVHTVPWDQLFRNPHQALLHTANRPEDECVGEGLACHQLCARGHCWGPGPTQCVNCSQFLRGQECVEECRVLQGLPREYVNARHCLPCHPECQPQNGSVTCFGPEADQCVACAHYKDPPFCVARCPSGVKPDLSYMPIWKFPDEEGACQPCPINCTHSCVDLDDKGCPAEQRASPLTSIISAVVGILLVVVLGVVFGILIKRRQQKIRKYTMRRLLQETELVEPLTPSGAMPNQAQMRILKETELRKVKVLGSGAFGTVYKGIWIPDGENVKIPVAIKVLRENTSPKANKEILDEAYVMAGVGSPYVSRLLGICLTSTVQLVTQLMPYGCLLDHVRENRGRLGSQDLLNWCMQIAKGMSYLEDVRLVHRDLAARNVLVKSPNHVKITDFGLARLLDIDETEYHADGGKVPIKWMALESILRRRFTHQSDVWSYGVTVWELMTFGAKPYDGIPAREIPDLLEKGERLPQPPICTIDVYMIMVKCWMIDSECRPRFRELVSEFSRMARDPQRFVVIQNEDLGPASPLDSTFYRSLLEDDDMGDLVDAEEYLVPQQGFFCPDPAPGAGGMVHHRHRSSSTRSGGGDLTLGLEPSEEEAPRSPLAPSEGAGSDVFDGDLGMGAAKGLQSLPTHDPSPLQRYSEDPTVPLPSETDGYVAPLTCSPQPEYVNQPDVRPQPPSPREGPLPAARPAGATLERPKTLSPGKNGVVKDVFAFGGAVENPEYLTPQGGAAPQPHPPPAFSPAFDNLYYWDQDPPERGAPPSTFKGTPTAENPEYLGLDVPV

Chain of Cyclin-dependent kinase 4 (P11802 whole entry): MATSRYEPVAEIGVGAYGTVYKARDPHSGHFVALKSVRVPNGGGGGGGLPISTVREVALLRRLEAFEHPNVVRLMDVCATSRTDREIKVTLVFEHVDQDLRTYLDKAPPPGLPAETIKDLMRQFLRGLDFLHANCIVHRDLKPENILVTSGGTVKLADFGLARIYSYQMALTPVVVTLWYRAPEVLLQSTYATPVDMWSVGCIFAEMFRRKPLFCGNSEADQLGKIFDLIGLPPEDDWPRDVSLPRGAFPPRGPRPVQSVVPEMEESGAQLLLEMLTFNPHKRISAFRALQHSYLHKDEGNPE

Row | SMILES | inhibition zone (IZ) (Escherichia coli [1]) [mm] | MIC (Escherichia coli [1]) [µg/mL] | inhibition zone (IZ) (Pseudomonas putida [2]) [mm] | MIC (Pseudomonas putida [2]) [µg/mL] | inhibition zone (IZ) (Klebsiella pneumoniae) [mm] | MIC (Klebsiella pneumoniae) [µg/mL] | inhibition zone (IZ) (Bacillus subtilis [3]) [mm] | MIC (Bacillus subtilis [3]) [µg/mL] | inhibition zone (IZ) (Staphylococcus aureus [4]) [mm] | MIC (Staphylococcus aureus [4]) [µg/mL] | IC50 (MDA-MB-231) [µM] | IC50 [9] [µM] | IC50 (HeLa) [µM] | IC50 [10] [µM] | IC50 [11] [µM] | IC50 [12] [µM] | other results
1 | O=C(NCCc1c[nH]c2ccccc12)C(=O)c1c[nH]c2ccc(F)cc12 | 20 | 12.5 (≈ 35.8 µM) | 18 | 12.5 (≈ 35.8 µM) | 18 | 12.5 (≈ 35.8 µM) | 18 | > 12.5 | 17 | 25 (≈ 71.6 µM) | > 100 | > 100 | > 100 | > 100 | > 100 | > 100 | Activity (Escherichia coli [5]): 80%; Activity (Pseudomonas putida [6]): 80%; Activity (Bacillus subtilis [7]): >80%; Activity (Staphylococcus aureus [8]): >65%; Stability [13]: Stable; Stability [14]: Stable; solubility thermodynamic at 12 h [15]: 0.3 µg/mL (≈ 0.859 µM); Activity (Escherichia coli [16]): Active; Activity (Pseudomonas putida [17]): Active
2 | O=C(NCCc1c[nH]c2ccccc12)C(=O)c1c[nH]c2cc(F)ccc12 | 15 | 100 (≈ 286 µM) | 14 | > 100 | 14 | > 50 |  |  |  |  | 21.1 | 24.1 | 22.3 | 46 | 69.8 | 29.9 | Activity (PC-3): Active
3 | CC(c1c[nH]c(N)n1)c1ccc(O)c2[nH]cc(-c3cnc(-c4c[nH]c5cc(Br)ccc45)c(O)n3)c12.O=C(O)C(F)(F)F (stereo not given) [DRAGMACIDINS] |  |  |  |  |  |  |  |  |  |  |  |  |  |  |  |  | MIC (Escherichia coli [18]): 15.6 µg/mL; MIC (Bacillus subtilis [19]): 3.1 µg/mL; MIC (Pseudomonas aeruginosa): 62.5 µg/mL; IC50 (P388): 1.4 µg/mL; IC50 (A549): 4.5 µg/mL
4 | O=C(NCCc1c[nH]c2ccccc12)C(=O)c1cn(Cc2ccc(Cl)cc2)c2ccc(Br)cc12 | 15 | 100 (≈ 187 µM) | 14 | > 100 | 14 | > 50 | 14 | 100 (≈ 187 µM) | 13 | 100 (≈ 187 µM) | > 100 | > 100 | > 100 | > 100 | > 100 | > 100 | 
5 | O=C1N=C(C(=O)c2c[nH]c3ccc(Br)cc23)N/C1=C\c1c[nH]c2ccccc12 |  |  |  |  |  |  |  |  |  |  |  |  |  |  |  |  | MIC (Micrococcus luteus): 16 µg/mL (≈ 36.9 µM); MIC (Corynebacterium xerosis): 16 µg/mL (≈ 36.9 µM)
6 | O=C(NCCc1c[nH]c2ccccc12)C(=O)c1cn(Cc2ccc(Cl)cc2)c2ccc(F)cc12 | 14 | 100 (≈ 211 µM) | 14 | 100 (≈ 211 µM) | 12 | > 100 | 13 | > 50 | 13 | 100 (≈ 211 µM) | > 100 | > 100 | > 100 | > 100 | > 100 | > 100 | 
7 | CCn1cc(C(=O)C(=O)NCCc2c[nH]c3ccccc23)c2ccccc21 | 14 | > 50 | 12 | > 100 | 13 | > 100 | 14 | 100 (≈ 278 µM) | 14 | 100 (≈ 278 µM) | > 100 | > 100 | > 100 | > 100 | > 100 | > 100 | 
8 | COc1ccc2c(c1)c(C(=O)C(=O)NCCc1c[nH]c3ccccc13)cn2Cc1ccc(Cl)cc1 | 13 | > 100 | 15 | 50 (≈ 103 µM) |  |  |  |  |  |  | > 100 | > 100 | > 100 | > 100 | > 100 | > 100 | 
9 | O=C1N=C(C(=O)c2c[nH]c3ccccc23)N/C1=C\c1c[nH]c2cc(O)ccc12 |  |  |  |  |  |  |  |  |  |  |  |  |  |  |  |  | IC50 [20]: 33.8 µM; IC50 [21]: 20 µM

Reference: ChEMBL document CHEMBL3808279, “Sequential one-pot synthesis of bis(indolyl)glyoxylamides: Evaluation of antibacterial and anticancer activities” (Bioorg Med Chem Lett, 2016)
